Results: ChEMBL document CHEMBL5252541, “Repurposing antipsychotic drugs into antifungal agents: Synergistic combinations of azoles and bromperidol derivatives in the treatment of various fungal infections” (Eur J Med Chem, 2017)

Legend:
[1] = system: Candida albicans; experiment: Partial synergistic antifungal activity against Candida albicans ATCC 64124 assessed as fractional inhibitory concentration index measured for 72 hrs in presence of ketoconazole; assay type: functional
[2] = Cytotoxicity against mouse J774.A1 cells assessed as cell survival at 16 microg/ml by XTT assay; assay type: toxicity, cell-based; settings: at 16 µg/mL, read-out: Activity
[3] = system: J774.A1; experiment: Cytotoxicity against mouse J774.A1 cells assessed as cell survival at 16 microg/ml in presence of voriconazole by XTT assay; assay type: toxicity, cell-based; settings: dose 16 µg/ml
[4] = system: Candida albicans; experiment: Potency index, ratio of posaconazole MIC to test compound MIC for antifungal activity against Candida albicans ATCC 10231 measured after 48 hrs by broth microdilution analysis; assay type: functional
[5] = Cytotoxicity against human HEK293 cells assessed as cell survival at 16 microg/ml in presence of posaconazole by XTT assay; assay type: toxicity, cell-based; settings: at 16 µg/mL
[6] = system: Candida albicans; experiment: Synergistic antifungal activity against Candida albicans ATCC 64124 assessed as compound MIC measured after 48 hrs in presence of posaconazole by checkboard based microplate reader analysis; assay type: functional
[7] = system: Candida albicans; experiment: Antifungal activity against Candida albicans ATCC MYA-2876 measured after 48 hrs by broth microdilution analysis; assay type: functional
[8] = system: J774.A1; experiment: Cytotoxicity against mouse J774.A1 cells assessed as cell survival up to 4 microg/ml by XTT assay; assay type: toxicity, cell-based; settings: dose < 4 µg/ml
[9] = Cytotoxicity against mouse J774.A1 cells assessed as cell survival at 64 microg/ml by XTT assay; assay type: toxicity, cell-based; settings: at 64 µg/mL, read-out: Activity
[10] = system: Candida albicans; experiment: Synergistic antifungal activity against Candida albicans ATCC 10231 assessed as compound MIC measured after 48 hrs in presence of ketoconazole by checkboard based microplate reader analysis; assay type: functional
[11] = system: Candida albicans; experiment: Antifungal activity against Candida albicans ATCC MYA-2310 measured after 48 hrs by broth microdilution analysis; assay type: functional
[12] = Cytotoxicity against human BEAS-2B cells assessed as cell survival by XTT assay; assay type: toxicity, cell-based; settings: read-out: Activity
[13] = system: Candida albicans; experiment: Antifungal activity against Candida albicans ATCC MYA-1003 measured after 48 hrs by broth microdilution analysis; assay type: functional
[14] = system: Candida albicans; experiment: Additive antifungal activity against Candida albicans ATCC 64124 assessed as fractional inhibitory concentration index measured for 72 hrs in presence of fluconazole; assay type: functional
[15] = system: Candida albicans; experiment: Synergistic antifungal activity against Candida albicans ATCC 10231 assessed as compound MIC measured after 48 hrs in presence of itraconazole by checkboard based microplate reader analysis; assay type: functional
[16] = system: Nakaseomyces glabratus; experiment: Synergistic antifungal activity against Candida glabrata ATCC 2001 assessed as fractional inhibitory concentration index measured for 72 hrs in presence of voriconazole; assay type: functional
[17] = system: Candida albicans; experiment: Synergistic antifungal activity against Candida albicans ATCC 64124 assessed as compound MIC measured after 48 hrs in presence of ketoconazole by checkboard based microplate reader analysis; assay type: functional
[18] = system: J774.A1; experiment: Cytotoxicity against mouse J774.A1 cells assessed as cell survival at 8 microg/ml by XTT assay; assay type: toxicity, cell-based; settings: j774.a1, dose 8 µg/ml
[19] = system: HEK293; experiment: Cytotoxicity against human HEK293 cells assessed as cell survival at 64 microg/ml by XTT assay; assay type: toxicity, cell-based; settings: dose 64 µg/ml
[20] = system: Candida albicans; experiment: Partial synergistic antifungal activity against Candida albicans ATCC MYA-1003 assessed as fractional inhibitory concentration index measured for 72 hrs in presence of posaconazole; assay type: functional
[21] = system: Candida albicans; experiment: Partial synergistic antifungal activity against Candida albicans ATCC 10231 assessed as fractional inhibitory concentration index measured for 72 hrs in presence of itraconazole; assay type: functional
[22] = system: BEAS-2B; experiment: Cytotoxicity against human BEAS-2B cells assessed as cell survival up to 4 microg/ml by XTT assay; assay type: toxicity, cell-based; settings: dose < 4 µg/ml
[23] = system: Candida albicans; experiment: Partial synergistic antifungal activity against Candida albicans ATCC 64124 assessed as fractional inhibitory concentration index measured for 72 hrs in presence of itraconazole; assay type: functional
[24] = system: Candida albicans; experiment: Synergistic antifungal activity against Candida albicans ATCC 64124 assessed as compound MIC measured after 48 hrs in presence of fluconazole by checkboard based microplate reader analysis; assay type: functional
[25] = system: Candida albicans; experiment: Antifungal activity against Candida albicans ATCC 64124 measured after 48 hrs by broth microdilution analysis; assay type: functional

What does the source list for `O=C(CCCN1CCC(O)(c2ccc(Br)cc2)CC1)c1ccc(F)cc1` [BROMPERIDOL]?
fractional inhibitory concentration index (FICI) [1]: 0.75; viability at 16 microg/ml [2]: 72%; Activity [3]: Non-Toxic; Ratio [4]: 8; viability at 16 microg/ml [5]: 40%; MIC [6]: 4 µg/mL; MIC [7]: > 128 µg/mL; Activity [8]: Non-Toxic; viability at 64 microg/ml [9]: 30%; MIC [10]: 32 µg/mL; MIC [11]: > 128 µg/mL; viability [12]: > 100%; MIC [13]: > 128 µg/mL; fractional inhibitory concentration index (FICI) [14]: 1.5; MIC [15]: 64 µg/mL; fractional inhibitory concentration index (FICI) [16]: 0.51; MIC [17]: 64 µg/mL; Activity [18]: Non-Toxic; Activity [19]: Non-Toxic; fractional inhibitory concentration index (FICI) [20]: 0.75; fractional inhibitory concentration index (FICI) [21]: 0.75; Activity [22]: Non-Toxic; fractional inhibitory concentration index (FICI) [23]: 0.56; MIC [24]: 64 µg/mL; MIC [25]: > 128 µg/mL
